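Compound exposure: 48 hours, 5 concentrations, 96-well plates. GI50 marks 50% less growth.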 Activity calls are given as the source filed them. Rule as the data show it: active = GI50 up to about 1.1 µM and inactive = higher. Positions of bridges follow the written chain, without caps; N, C: chain ends. Where a SMILES comes first, the peptide text is derived from it. Non-standard residues stand in square brackets, D forms with d. Residues, ends and D or L forms follow the SMILES beside them. [ ]: non-standard residue; d: D form. ξ: configuration not given here. *: point of attachment. ξThz(5,5-Me2) = CC1(C)SCNC1C(=O)O; Cbz = O=C(OCc1ccccc1)*; Aib = CC(C)(N)C(=O)O; OBn = c1ccc(CO*)cc1; βAla = NCCC(=O)O
Legend:
Assay in all cases: DTP human tumour cell line panel, 48 h
RXF 393 = tested on: RXF 393
NCI-H460 = tested on: NCI-H460
RPMI-8226 = tested on: RPMI-8226
NCI-H522 = tested on: NCI-H522
SK-MEL-2 = tested on: SK-MEL-2
SK-OV-3 = tested on: SK-OV-3
MDA-MB-231 = tested on: MDA-MB-231
SW-620 = tested on: SW-620
OVCAR-4 = tested on: OVCAR-4
ACHN = tested on: ACHN
NCI/ADR-RES = tested on: NCI/ADR-RES
SK-MEL-28 = tested on: SK-MEL-28
786-0 = tested on: 786-0
CAKI-1 = tested on: CAKI-1
HCC 2998 = tested on: HCC 2998
T47D = tested on: T47D
UACC-62 = tested on: UACC-62
HCT-15 = tested on: HCT-15
CCRF-CEM = tested on: CCRF-CEM
LOX IMVI = tested on: LOX IMVI

Structure (SMILES) | GI50 (RXF 393) | GI50 (NCI-H460) | GI50 (RPMI-8226) | GI50 (NCI-H522) | GI50 (SK-MEL-2) | GI50 (SK-OV-3) | GI50 (MDA-MB-231) | GI50 (SW-620) | GI50 (OVCAR-4) | GI50 (ACHN) | GI50 (NCI/ADR-RES) | GI50 (SK-MEL-28) | GI50 (786-0) | GI50 (CAKI-1) | GI50 (HCC 2998) | GI50 (T47D) | GI50 (UACC-62) | GI50 (HCT-15) [µM] | GI50 (CCRF-CEM) | GI50 (LOX IMVI)
Cc1cc(=O)nc(S(=O)(=O)NC(=S)Nc2ccc(Br)cc2)[nH]1 | 20.5 µM (inactive) | > 100 µM (inactive) | 33.4 µM (inactive) | 18.6 µM (inactive) | > 100 µM (inactive) | > 100 µM (inactive) | > 100 µM (inactive) | > 100 µM (inactive) | 93.5 µM (inactive) | > 100 µM (inactive) | > 100 µM (inactive) | > 100 µM (inactive) | > 100 µM (inactive) | 65.6 µM (inactive) | > 100 µM (inactive) | > 100 µM (inactive) | > 100 µM (inactive) | 75.9 | – | –
O=c1[nH]c2nc3ccccc3c(=O)n2/c1=C/c1ccco1 | – | – | > 100 µM (inactive) | > 100 µM (inactive) | > 100 µM (inactive) | > 100 µM (inactive) | > 100 µM (inactive) | > 100 µM (inactive) | > 100 µM (inactive) | > 100 µM (inactive) | > 100 µM (inactive) | > 100 µM (inactive) | > 100 µM (inactive) | > 100 µM (inactive) | > 100 µM (inactive) | 23.4 µM (inactive) | > 100 µM (inactive) | > 100 | > 100 µM (inactive) | > 100 µM (inactive)
CC1(C)NC(=O)C(NC(=O)C(CC(=O)OCc2ccccc2)NC(=O)OCc2ccccc2)CCCCNC(=O)CCNC1=O (configuration not stated) (Cbz-D(OBn)K[Aib][βAla]; lactam 2-C; configuration not given here) | > 100 µM (inactive) | > 100 µM (inactive) | > 100 µM (inactive) | > 100 µM (inactive) | – | > 100 µM (inactive) | > 100 µM (inactive) | > 100 µM (inactive) | > 100 µM (inactive) | > 100 µM (inactive) | > 100 µM (inactive) | > 100 µM (inactive) | > 100 µM (inactive) | > 100 µM (inactive) | > 100 µM (inactive) | > 100 µM (inactive) | > 100 µM (inactive) | > 100 | – | > 100 µM (inactive)
CCc1nc2ccc(/N=N/N(C)C)cc2[nH]1 | 45.3 µM (inactive) | > 100 µM (inactive) | > 100 µM (inactive) | > 100 µM (inactive) | > 100 µM (inactive) | – | > 100 µM (inactive) | > 100 µM (inactive) | > 100 µM (inactive) | > 100 µM (inactive) | > 100 µM (inactive) | > 100 µM (inactive) | > 100 µM (inactive) | > 100 µM (inactive) | > 100 µM (inactive) | > 100 µM (inactive) | > 100 µM (inactive) | > 100 | > 100 µM (inactive) | –
CSCC[C@H](NC(=O)[C@H](CC(C)C)NC(=O)[C@H](Cc1c[nH]cn1)NC(=O)CNC(=O)C1N(C(=O)[C@@H](C)NC(=O)[C@H](Cc2c[nH]c3ccccc23)NC(=O)[C@H](CCC(N)=O)NC(=O)[C@@H](N)CC(N)=O)CSC1(C)C)C(N)=O (some centres not stated) (H-NQW[dA][ξThz(5,5-Me2)]GHLM-NH2) | > 25 µM (inactive) | > 25 µM (inactive) | > 25 µM (inactive) | > 25 µM (inactive) | – | > 25 µM (inactive) | > 25 µM (inactive) | > 25 µM (inactive) | > 25 µM (inactive) | > 25 µM (inactive) | > 25 µM (inactive) | > 25 µM (inactive) | > 25 µM (inactive) | > 25 µM (inactive) | > 25 µM (inactive) | > 25 µM (inactive) | > 25 µM (inactive) | > 25 | > 25 µM (inactive) | > 25 µM (inactive)
COc1ccc(OC)c(/C=C/c2ccnc3ccccc23)c1 | 0.377 µM (active) | 0.371 µM (active) | 0.773 µM (active) | 0.281 µM (active) | – | 0.403 µM (active) | 0.565 µM (active) | 0.366 µM (active) | 0.863 µM (active) | 0.533 µM (active) | 0.255 µM (active) | 0.574 µM (active) | 0.482 µM (active) | 1.28 µM (inactive) | 1.24 µM (inactive) | 1.63 µM (inactive) | 0.307 µM (active) | 0.372 | 0.337 µM (active) | 0.365 µM (active)
Cc1nc2c(n1CCCl)C(=O)c1ccccc1C2=O | 19.5 µM (inactive) | 14.9 µM (inactive) | 58.6 µM (inactive) | 16.7 µM (inactive) | – | 5.22 µM (inactive) | 15.4 µM (inactive) | 23 µM (inactive) | 14.8 µM (inactive) | 28.9 µM (inactive) | 16.2 µM (inactive) | 42.8 µM (inactive) | 52.2 µM (inactive) | – | 21.7 µM (inactive) | > 10 µM (inactive) | 13 µM (inactive) | 7.87 | 22.6 µM (inactive) | –
COc1ccc(C(Nc2ccccn2)c2cc(C(C)(C)C)cc(C(C)(C)C)c2O)cc1 (configuration not stated) | 7.74 µM (inactive) | 16.7 µM (inactive) | 23.1 µM (inactive) | 4.05 µM (inactive) | 18.1 µM (inactive) | 19.5 µM (inactive) | 33.4 µM (inactive) | 19.2 µM (inactive) | 34.4 µM (inactive) | 30.8 µM (inactive) | 16 µM (inactive) | 50.4 µM (inactive) | 21.4 µM (inactive) | 39.4 µM (inactive) | 12.3 µM (inactive) | 6.67 µM (inactive) | 17 µM (inactive) | 22.3 | – | 13.9 µM (inactive)
COC(=O)c1ccc(NCc2c(O)ccc(O)c2Br)cc1Cl | – | 18.7 µM (inactive) | 3.56 µM (inactive) | 0.329 µM (active) | 19.1 µM (inactive) | > 100 µM (inactive) | 15.2 µM (inactive) | 12.2 µM (inactive) | 18.2 µM (inactive) | 15.6 µM (inactive) | 12.2 µM (inactive) | 16.8 µM (inactive) | 18.4 µM (inactive) | 15.8 µM (inactive) | 19.1 µM (inactive) | 19.6 µM (inactive) | 15.7 µM (inactive) | 16.6 | 0.367 µM (active) | 13 µM (inactive)
C1CCNCC1.S=C(S)N1CCCCC1 | 190 µM (inactive) | – | 3.75 µM (inactive) | 0.276 µM (active) | 85.3 µM (inactive) | 92.5 µM (inactive) | 16.1 µM (inactive) | 0.573 µM (active) | – | 87.7 µM (inactive) | 19.3 µM (inactive) | 48.6 µM (inactive) | 97.3 µM (inactive) | 33.4 µM (inactive) | 100 µM (inactive) | 91 µM (inactive) | 0.601 µM (active) | 88.9 | – | 60.5 µM (inactive)
Cn1c(=O)c2sc3c4sc5c(=O)n(C)c6ccccc6c5c4sc3c2c2ccccc21 | 12.6 µM (inactive) | > 100 µM (inactive) | > 100 µM (inactive) | > 100 µM (inactive) | > 100 µM (inactive) | > 100 µM (inactive) | 31.5 µM (inactive) | > 100 µM (inactive) | 98.9 µM (inactive) | 48.1 µM (inactive) | > 100 µM (inactive) | > 100 µM (inactive) | 38.1 µM (inactive) | > 100 µM (inactive) | > 100 µM (inactive) | > 100 µM (inactive) | > 100 µM (inactive) | > 100 | > 100 µM (inactive) | –
Cc1nc(C)c(N2CCN(S(N)(=O)=O)CC2)c(O)n1 | > 100 µM (inactive) | > 100 µM (inactive) | > 100 µM (inactive) | > 100 µM (inactive) | – | > 100 µM (inactive) | > 100 µM (inactive) | > 100 µM (inactive) | > 100 µM (inactive) | > 100 µM (inactive) | > 100 µM (inactive) | > 100 µM (inactive) | > 100 µM (inactive) | > 100 µM (inactive) | > 100 µM (inactive) | > 100 µM (inactive) | > 100 µM (inactive) | > 100 | > 100 µM (inactive) | > 100 µM (inactive)
CNC(=O)C(C)NC(=O)C(Cc1ccccc1)NC(=O)OC(C)(C)C (configuration not stated) | > 100 µM (inactive) | > 100 µM (inactive) | > 100 µM (inactive) | 51.2 µM (inactive) | > 100 µM (inactive) | > 100 µM (inactive) | > 100 µM (inactive) | > 100 µM (inactive) | – | > 100 µM (inactive) | > 100 µM (inactive) | > 100 µM (inactive) | > 100 µM (inactive) | > 100 µM (inactive) | > 100 µM (inactive) | > 100 µM (inactive) | > 100 µM (inactive) | > 100 | > 100 µM (inactive) | > 100 µM (inactive)
O=C1NC(=O)C2(CCCCCC2)N1 | > 100 µM (inactive) | > 100 µM (inactive) | > 100 µM (inactive) | > 100 µM (inactive) | > 100 µM (inactive) | > 100 µM (inactive) | > 100 µM (inactive) | > 100 µM (inactive) | > 100 µM (inactive) | > 100 µM (inactive) | > 100 µM (inactive) | > 100 µM (inactive) | > 100 µM (inactive) | > 100 µM (inactive) | – | > 100 µM (inactive) | > 100 µM (inactive) | > 100 | > 100 µM (inactive) | > 100 µM (inactive)
CC(C)(C)OC(=O)N(O)[C@@H]1CC[C@H](n2cnc3c(N)ncnc32)C1 | > 100 µM (inactive) | > 100 µM (inactive) | > 100 µM (inactive) | > 100 µM (inactive) | > 100 µM (inactive) | > 100 µM (inactive) | > 100 µM (inactive) | > 100 µM (inactive) | > 100 µM (inactive) | > 100 µM (inactive) | > 100 µM (inactive) | > 100 µM (inactive) | > 100 µM (inactive) | – | > 100 µM (inactive) | > 100 µM (inactive) | > 100 µM (inactive) | > 100 | > 100 µM (inactive) | > 100 µM (inactive)

— ChEMBL document CHEMBL1201862, “PubChem BioAssay data set” (2004)
